Entries after “also recorded” stand apart in the source; their conditions may differ.
Legend:
DX3puroβ6 (+) cells [1] = test: WST-1 cell viability assay, DX3puroβ6; assay type: cell-based; conditions: for Fold more cytotoxic toward DX3puroβ6 (+) than DX3puro (−) cells: WST-1 EC50 ratio
Description: (§1) Peptides NH2-2 and [^natCu]2 were not toxic to any cells (Figure 3, gray and black, respectively).
(§2) Cell viability was measured after treatment with either NH2-2, [^natCu]2, MMAE (free, non-targeted drug), NH2-PDC-1, or [^natCu]PDC-1 in DX3puroβ6 (+) and DX3puro (−) cells at variable concentrations up to 5 nM, and in BxPC-3 (+) and MIA PaCa-2 (−) cells at variable concentrations up to 250 nM, or with MMAE at concentrations up to 10 nM. Cells were seeded in a 96 well plate at a density of 6000 cells/well for DX3puroβ6 and DX3puro, and at a density of 10,000 cells/well for BxPC-3 and MIA PaCa-2. DMEM media was used for all cells except for BxPC-3 (RPMI 1640 media). Cells (n = 6–8 wells/cell type/compound) were treated with different concentrations of NH2-2, [^natCu]2, MMAE, NH2-PDC-1, or [^natCu]PDC-1 dissolved in the respective media, as well as their respective media (no treatment) for 48 h (37 °C, 5% CO2), after which the media was removed; cells were washed twice with media (200 μL) and re-incubated in media (37 °C, 5% CO2) for 24 h. The media was then removed and the WST-1 reagent was added to each well, and the cells were incubated for 2 h at 37 °C. The 96 well plates were read at 450 nm by a Multiscan Ascent microplate reader. The percent cell viability was normalized to untreated cells (set as 100% viability) for each cell line.

DX3puro (−) cells [2] = test: WST-1 cell viability assay, DX3puro; assay type: cell-based; conditions: up to 5 nM
Description: as §1, §2

BxPC-3 (+) cells [3] = test: WST-1 cell viability assay, BxPC-3; assay type: cell-based
Description: as §1, §2

MIA PaCa-2 (−) cells [4] = test: Caspase-3/7 activity assay (ApoTox-Glo), MIA PaCa-2; assay type: cell-based; conditions: 250 nM (MMAE 10 nM, staurosporine 100 nM), 24, 48, 72 h
Description: (§3) Caspase-3/7 activity was analyzed using an ApoTox-Glo Triplex Assay kit. Cells were seeded in a 96 well plate at the same density and using the same respective media as described for the WST-1 assay and incubated overnight (37 °C, 5% CO2). DX3puroβ6 and DX3puro cells were treated with 1 nM of MMAE (free, non-targeted drug) or 0.625 nM of the other compounds: NH2-2, [^natCu]2, NH2-PDC-1, or [^natCu]PDC-1. BxPC-3 and MIA PaCa-2 cells were treated with 10 nM of MMAE or 250 nM of the other compounds: NH2-2, [^natCu]2, NH2-PDC-1, or [^natCu]PDC-1. All cells were treated with 100 nM of staurosporine as a positive control.[24] Untreated cells (media) were used as a measure of endogenous caspase-3/7 activity (normalized to 1). Cells were treated (n = 4/cell line/compound/time) for 24, 48, or 72 h (37 °C, 5% CO2) prior to washing. After treatment, the media was removed, cells were washed, and Caspase-Glo 3/7 reagent was added, and incubated for 1 h at room temperature. Caspase-3/7 activity was analyzed by measuring luminescence with a Fluoroskan FL microplate reader according to the manufacturer’s protocol.

MIA PaCa-2 (−) cells [5] = test: WST-1 cell viability assay, MIA PaCa-2; assay type: cell-based
Description: as §1, §2

DX3puro (−) cells [6] = test: Caspase-3/7 activity assay (ApoTox-Glo), DX3puro; assay type: cell-based; conditions: 0.625 nM (MMAE 1 nM, staurosporine 100 nM), 24, 48, 72 h
Description: as §3

DX3puroβ6 (+) cells [7] = test: Caspase-3/7 activity assay (ApoTox-Glo), DX3puroβ6; assay type: cell-based; conditions: for Caspase-3/7 activity, times higher: DX3puroβ6, 0.625 nM, 24 h, untreated = 1, n = 4; for Caspase-3/7 activity (in words): DX3puroβ6 (+), 0.625 nM (MMAE 1 nM, staurosporine 100 nM), 24, 48, 72 h
Description: as §3

BxPC-3 (+) cells [8] = test: Caspase-3/7 activity assay (ApoTox-Glo), BxPC-3; assay type: cell-based; conditions: for Caspase-3/7 activity, fold increase: 250 nM, 48 h, untreated = 1, n = 4; for Caspase-3/7 activity (in words): 250 nM (MMAE 10 nM, staurosporine 100 nM), 24, 48, 72 h
Description: as §3

DX3puro (−) tumors = test: Therapy study, DX3puro (−) tumor-bearing mice; assay type: in vivo
From the text: (§4) Mice treated with [^natCu]PDC-1 had slower tumor growth compared to the groups receiving saline, non-drug bearing peptide [^natCu]2, or free, non-targeted MMAE (Figure 7). […] All mice in the groups treated with saline, non-drug bearing peptide [^natCu]2, or free, non-targeted MMAE had met an end point criterion (≥2 cm in any direction and/or tumor ulceration) by 56 days, 70 days, and 64 days from start of treatment, respectively, with all these groups having the same median survival of 37 days (Figure 7B).
Tumor xenografts were established by subcutaneous injection of either DX3puroβ6 or DX3puro cells (3 × 10^6 cells in 100 μL serum-free DMEM/animal) into the flank. The tumors were allowed to grow for 19 days before the start of treatment (day 0). […] Tumor volumes and body weights (to assess possible systemic toxicity) were measured starting on day 0, and once a week thereafter until the end of the study. Tumor volume (V) was determined according to the equation V = (π/6) × L × W × H, where L is the longest axis, W is the axis perpendicular to L, and H is perpendicular to the plane of L and W. End point determination criteria were: any axis >2 cm, active ulceration, or compromised health of the mouse (>20% loss of body weight from the start of the study). […] Survival curves were determined by Kaplan–Meier method.

DX3puroβ6 (+) tumors = test: Therapy study, DX3puroβ6 (+) tumor-bearing mice; assay type: in vivo
From the text: as §4
Tumor xenografts were established by subcutaneous injection of either DX3puroβ6 or DX3puro cells (3 × 10^6 cells in 100 μL serum-free DMEM/animal) into the flank. The tumors were allowed to grow for 19 days before the start of treatment (day 0). Mice were treated with either (1) saline, (2) peptide ([^natCu]2), 6 mg/kg, 1.12 μmol/kg), (3) non-targeted drug (MMAE, 0.3 mg/kg, 0.42 μmol/kg), or (4) PDC ([^natCu]PDC-1, 6 mg/kg, 0.88 μmol/kg). Dosing of MMAE was 0.3 mg/kg as per maximum dose with no physiological response.[25] The [^natCu]PDC-1 treatment groups consisted of n = 10/tumor model, while all other groups (saline, [^natCu]2, and MMAE) consisted of n = 4/tumor model. All groups received four doses (on days 0, 3, 6, and 9) via i.v. tail vein injection of the above dose dissolved in saline (100 μL). The mean weights and standard deviation of each group was 25.9 ± 1.2 g (saline), 25.6 ± 1.5 g ([^natCu]2), 25.8 ± 2.5 g (MMAE), 24.9 ± 1.9 g ([^natCu]PDC-1, DX3puroβ6 tumors), and 25.7 ± 2.0 g ([^natCu]PDC-1, DX3puro tumors) at day 0. Tumor volumes and body weights (to assess possible systemic toxicity) were measured starting on day 0, and once a week thereafter until the end of the study. Tumor volume (V) was determined according to the equation V = (π/6) × L × W × H, where L is the longest axis, W is the axis perpendicular to L, and H is perpendicular to the plane of L and W. End point determination criteria were: any axis >2 cm, active ulceration, or compromised health of the mouse (>20% loss of body weight from the start of the study). All data are represented as the mean ± SD and are plotted beginning at day 0. Survival curves were determined by Kaplan–Meier method.

[9] = 48 h treatment + 24 h media, mean ± SD

| Molecule | Fold more cytotoxic toward DX3puroβ6 (+) than DX3puro (−) cells (DX3puroβ6 (+) cells [1]) [fold] | Caspase-3/7 activity (in words) (MIA PaCa-2 (−) cells [4]) | Caspase-3/7 activity (in words) (DX3puro (−) cells [6]) | Caspase-3/7 activity, times higher (DX3puroβ6 (+) cells [7]) [times] | Caspase-3/7 activity, fold increase (BxPC-3 (+) cells [8]) [fold] | Cytotoxicity (in words), WST-1 (DX3puro (−) cells [2]) | Caspase-3/7 activity (in words) (DX3puroβ6 (+) cells [7]) | Caspase-3/7 activity (in words) (BxPC-3 (+) cells [8]) | other results |
| --- | --- | --- | --- | --- | --- | --- | --- | --- | --- |
| CC[C@H](C)[C@@H]([C@@H](CC(=O)N1CCC[C@H]1[C@H](OC)[C@@H](C)C(=O)N[C@H](C)[C@@H](O)c1ccccc1)OC)N(C)C(=O)[C@@H](NC(=O)[C@H](C(C)C)N(C)C(=O)OCc1ccc(NC(=O)[C@H](CCCNC(N)=O)NC(=O)[C@@H](NC(=O)CCOCCOCCNC(=O)CCN2C(=O)CC(SC[C@H](N)C(=O)NCCOCCOCCOCCOCCOCCOCCOCCOCCOCCOCCOCCOCCOCCOCCOCCOCCOCCOCCOCCOCCOCCOCCOCCOCCOCCOCCOCCOCCC(=O)N[C@@H](CC(N)=O)C(=O)N[C@@H](C)C(=O)N[C@H](C(=O)N3CCC[C@H]3C(=O)N[C@@H](CC(N)=O)C(=O)N[C@@H](CC(C)C)C(=O)N[C@@H](CCCNC(=N)N)C(=O)NCC(=O)N[C@@H](CC(=O)O)C(=O)N[C@@H](CC(C)C)C(=O)N[C@@H](CCC(N)=O)C(=O)N[C@H](C(=O)N[C@@H](CC(C)C)C(=O)N[C@@H](C)C(=O)N[C@@H](CCC(N)=O)C(=O)N[C@@H](CCCNC(=N)N)C(=O)N[C@H](C(=O)N[C@@H](C)C(=O)N[C@@H](CCCNC(=N)N)C(=O)N[C@H](C(=O)NCCOCCOCCOCCOCCOCCOCCOCCOCCOCCOCCOCCOCCOCCOCCOCCOCCOCCOCCOCCOCCOCCOCCOCCOCCOCCOCCOCCOCCC(N)=O)[C@@H](C)O)C(C)C)C(C)C)C(C)C)C2=O)C(C)C)cc1)C(C)C (some centres unmarked) [NH2-PDC-1] | > 31 | no significant increase | no observed change | > 5 | > 3 | – | – | – | EC50 (DX3puroβ6 (+) cells [1]; DX3puroβ6 (+), 48 h treatment + 24 h media, mean ± SD): 0.159 ± 0.014 nM; EC50 (DX3puro (−) cells [2]; [9]): > 5 nM; EC50 (BxPC-3 (+) cells [3]; [9]): 222 ± 114 nM; EC50 (MIA PaCa-2 (−) cells [5]; MIA PaCa-2 (−), 48 h treatment + 24 h media, up to 250 nM (MMAE up to 10 nM), mean ± SD): > 250 nM |
| CC[C@H](C)[C@@H]([C@@H](CC(=O)N1CCC[C@H]1[C@H](OC)[C@@H](C)C(=O)N[C@H](C)[C@@H](O)c1ccccc1)OC)N(C)C(=O)[C@@H](NC(=O)[C@H](C(C)C)N(C)C(=O)OCc1ccc(NC(=O)[C@H](CCCNC(N)=O)NC(=O)[C@@H](NC(=O)CCOCCOCCNC(=O)CCN2C(=O)CC(SC[C@H](NC(=O)CN3CCN(CC(=O)O)CCN(CC(=O)O)CCN(CC(=O)O)CC3)C(=O)NCCOCCOCCOCCOCCOCCOCCOCCOCCOCCOCCOCCOCCOCCOCCOCCOCCOCCOCCOCCOCCOCCOCCOCCOCCOCCOCCOCCOCCC(=O)N[C@@H](CC(N)=O)C(=O)N[C@@H](C)C(=O)N[C@H](C(=O)N3CCC[C@H]3C(=O)N[C@@H](CC(N)=O)C(=O)N[C@@H](CC(C)C)C(=O)N[C@@H](CCCNC(=N)N)C(=O)NCC(=O)N[C@@H](CC(=O)O)C(=O)N[C@@H](CC(C)C)C(=O)N[C@@H](CCC(N)=O)C(=O)N[C@H](C(=O)N[C@@H](CC(C)C)C(=O)N[C@@H](C)C(=O)N[C@@H](CCC(N)=O)C(=O)N[C@@H](CCCNC(=N)N)C(=O)N[C@H](C(=O)N[C@@H](C)C(=O)N[C@@H](CCCNC(=N)N)C(=O)N[C@H](C(=O)NCCOCCOCCOCCOCCOCCOCCOCCOCCOCCOCCOCCOCCOCCOCCOCCOCCOCCOCCOCCOCCOCCOCCOCCOCCOCCOCCOCCOCCC(N)=O)[C@@H](C)O)C(C)C)C(C)C)C(C)C)C2=O)C(C)C)cc1)C(C)C (some centres unmarked) [[^natCu]PDC-1, metal not drawn] | > 86 | slight increase | no observed change | > 5 | > 3 | no observable cytotoxic effects | – | – | Median survival (DX3puro (−) tumors; 6 mg/kg i.v. on days 0, 3, 6, 9, n = 10): 49 days; Time at which all mice had reached an end point (DX3puro (−) tumors; from start of treatment): 95 days; Concentration required for noticeable cytotoxic effects (MIA PaCa-2 (−) cells [5]; MIA PaCa-2, WST-1): ≥ 250 nM; Median survival (DX3puroβ6 (+) tumors; DX3puroβ6 (+) tumors, 6 mg/kg i.v. on days 0, 3, 6, 9, n = 10): 77 days; Mean tumor volume, times smaller than all other treatment groups (saline, [natCu]2, MMAE) (DX3puroβ6 (+) tumors; day 37): > 4 times; Mean tumor volume, times smaller than equally treated DX3puro (−) tumors (DX3puroβ6 (+) tumors; day 37, P = 0.0099): > 2.75 times; Body weight / systemic toxicity (in words) (DX3puroβ6 (+) tumors; four doses of 6 mg/kg i.v., body weight weekly, all groups compared, 6 mg/kg): No significant differences; also recorded: did not cause adverse systemic side-effects; Median survival, fold longer than other treatment groups (DX3puroβ6 (+) tumors; vs saline, [natCu]2, MMAE (37 days)): > 2 fold |
| CN[C@@H]1C[C@H]2O[C@@](C)([C@@H]1OC)n1c3ccccc3c3c4c(c5c6ccccc6n2c5c31)C(=O)NC4 [staurosporine, reference compound] | – | increased caspase-3/7 activity | increased caspase-3/7 activity | – | – | – | increased caspase-3/7 activity | increased caspase-3/7 activity | – |
| NH2-C-αvβ6-BP [NH2-2] | – | no effect on caspase-3/7 activity | no effect on caspase-3/7 activity | – | – | not toxic | no effect on caspase-3/7 activity | no effect on caspase-3/7 activity | Cytotoxicity (in words), WST-1 (DX3puroβ6 (+) cells [1]; DX3puroβ6 (+), up to 5 nM): not toxic; Cytotoxicity (in words), WST-1 (BxPC-3 (+) cells [3]; up to 250 nM): not toxic; Cytotoxicity (in words), WST-1 (MIA PaCa-2 (−) cells [5]; MIA PaCa-2 (−), up to 250 nM): not toxic |

— article PMC10388305, “Synthesis and Evaluation of a Monomethyl Auristatin E—Integrin αvβ6 Binding Peptide–Drug Conjugate for Tumor Targeted Drug Delivery” (Journal of Medicinal Chemistry, 2023)
